Measured values: EPA's ToxRefDB 2

Experiments:
mouse [1] = conditions: Subchronic oral toxicity in rodents, b6c3f1, Gavage/Intubation, dose end: 3 month, group: systemic
rat [2] = conditions: Subchronic oral toxicity in rodents, fischer, Gavage/Intubation, dose end: 3 month, group: systemic
mouse [3] = conditions: Carcinogenicity; cd1; Oral; Feed; dose end: 24 month; group: systemic; systemic / in life observation / body weight / body weight + systemic / pathology microscopic / kidney / basophilia + systemic / pathology …
rat [4] = conditions: Multigenerational reproductive toxicity study, sprague dawley, Oral, Feed, dose end: 2 generation
rat [5] = conditions: Subchronic oral toxicity in rodents, sprague dawley, Feed, dose end: 3 month, group: systemic, systemic / clinical chemistry / glucose / glucose + systemic / clinical chemistry / phosphorus / phosphorus + systemic / clinical chemistry…
rat [6] = conditions: Prenatal developmental toxicity study, sprague dawley, Oral, Gavage/Intubation, dose end: 19 GD
rat [7] = conditions: Combined chronic toxicity/carcinogenicity, sprague dawley, Oral, Feed, dose end: 24 month, group: systemic
dog [8] = conditions: Chronic toxicity; beagle; Oral; Feed; dose end: 1 year; group: systemic; systemic / organ weight / kidney / absolute + systemic / pathology gross / liver / enlarged + systemic / pathology microscopic / epididymis…
mouse [9] = conditions: Carcinogenicity, cd1, Oral, Feed, dose end: 18 month, group: systemic
rat [10] = conditions: Subchronic oral toxicity in rodents, other, Feed, dose end: 90 day, group: systemic
rat [11] = conditions: Combined chronic toxicity/carcinogenicity, sprague dawley, Oral, Feed, dose end: 2 year, group: systemic
rat [12] = conditions: Multigenerational reproductive toxicity study, other, Oral, Feed, dose end: 2 generation
dog [13] = conditions: Subchronic oral toxicity in nonrodent, beagle, Feed, dose end: 90 day, group: systemic
rabbit = conditions: Prenatal developmental toxicity study, himalayan, Oral, Gavage/Intubation, dose end: 18 GD
dog [14] = conditions: Chronic toxicity, beagle, Oral, Feed, dose end: 1 year, group: cholinesterase
mouse [15] = conditions: Combined chronic toxicity/carcinogenicity, b6c3f1, Oral, Feed, dose end: 2 year
rat [16] = conditions: Subchronic oral toxicity in rodents, wistar, Feed, dose end: 86 day
rat [17] = conditions: Subchronic oral toxicity in rodents, sprague dawley, Feed, dose end: 90 day, group: systemic, systemic / clinical chemistry / alkaline phosphatase (alp/alk) / alkaline phosphatase (alp/alk) + systemic / hematology / mean corpuscular …
rat [18] = conditions: Combined chronic toxicity/carcinogenicity, sprague dawley, Oral, Feed, dose end: 24 month, group: systemic; remark: listed apart in the source
rat [19] = conditions: Prenatal developmental toxicity study, sprague dawley, Oral, Gavage/Intubation, dose end: 15 GD
dog [20] = conditions: Chronic toxicity, beagle, Oral, Feed, dose end: 1 year, group: systemic
dog [21] = conditions: Subchronic oral toxicity in nonrodent, beagle, Feed, dose end: 90 day, group: systemic; remark: listed apart in the source
[22] = systemic / in life observation / body weight / body weight + systemic / in life observation / body weight / body weight gain + systemic / in…
[23] = systemic / clinical chemistry / alanine aminotransferase (alt/sgpt) / alanine aminotransferase (alt/sgpt) + systemic / clinical chemistry / …
[24] = systemic / pathology microscopic / liver / hyperplasia + systemic / pathology microscopic / liver / inflammation + systemic / hematology / …
[25] = group: offspring, systemic / in life observation / body weight / offspring (pup) weight + systemic / in life observation / body weight / offspring (pup) …
[26] = group: parental, systemic / in life observation / body weight / body weight + systemic / in life observation / clinical signs / soft stools
[27] = group: parental, systemic / in life observation / body weight / body weight + systemic / in life observation / clinical signs / soft stools + systemic / in …
[28] = group: developmental, developmental / developmental malformation / bone / unossified + systemic / in life observation / body weight / fetal weight
[29] = group: maternal, systemic / in life observation / body weight / body weight gain + systemic / in life observation / clinical signs / defecation (diarrhea) + …
[30] = systemic / pathology microscopic / stomach / inflammation
[31] = systemic / pathology microscopic / stomach / inflammation + systemic / in life observation / body weight / body weight + systemic / in life …
[32] = systemic / in life observation / body weight / body weight + systemic / pathology microscopic / stomach / cyst + systemic / pathology …
[33] = systemic / in life observation / body weight / body weight gain
[34] = systemic / in life observation / body weight / body weight gain + systemic / organ weight / liver / relative to body weight + systemic / …
[35] = group: offspring, systemic / in life observation / body weight / offspring (pup) weight + systemic / in life observation / clinical signs / reduced body size
[36] = group: parental, systemic / in life observation / body weight / body weight gain
[37] = group: reproductive, reproductive / reproductive performance / gestational length / gestational length
[38] = systemic / urinalysis / specific gravity/osmolality / specific gravity/osmolality + systemic / urinalysis / volume / volume
[39] = group: cholinesterase, cholinesterase / cholinesterase / cholinesterase / erythrocyte cholinesterase (che)
[40] = group: maternal, reproductive / reproductive performance / resorptions / resorptions + reproductive / reproductive performance / aborted / aborted + systemic…
[41] = cholinesterase / cholinesterase / cholinesterase / brain cholinesterase (che) + cholinesterase / cholinesterase / cholinesterase / plasma …
[42] = cholinesterase / cholinesterase / cholinesterase / brain cholinesterase (che) + cholinesterase / cholinesterase / cholinesterase / …
[43] = group: systemic, systemic / in life observation / body weight / body weight + systemic / in life observation / body weight / body weight gain + systemic / in…
[44] = group: systemic, systemic / organ weight / adrenal gland / nos
[45] = group: cholinesterase, cholinesterase / cholinesterase / cholinesterase / brain (regional) cholinesterase (che) + cholinesterase / cholinesterase / cholinesterase…
[46] = group: systemic, systemic / pathology microscopic / seminal vesicle / colloid content
[47] = systemic / clinical chemistry / gamma glutamyl transferase (ggt) / gamma glutamyl transferase (ggt) + systemic / organ weight / kidney / …
[48] = systemic / hematology / anemia / anemia - hemolytic + systemic / hematology / erythrocyte (rbc) count differential / erythrocyte (rbc) + …
[49] = group: developmental, developmental / developmental malformation / bone / supernumerary + developmental / developmental malformation / bone / unossified
[50] = group: maternal, systemic / in life observation / body weight / body weight gain + systemic / in life observation / clinical signs / salivation + systemic / …
[51] = systemic / pathology microscopic / liver / hyperplasia + systemic / pathology microscopic / liver / hypertrophy + systemic / clinical …
[52] = systemic / in life observation / body weight / body weight gain + systemic / clinical chemistry / alanine aminotransferase (alt/sgpt) / …

## C=CCc1ccc(OC)cc1 [Estragole]
Mouse [1]; [22]
  LOAEL: > 600 mg/kg/day
  NEL: 37.5 mg/kg/day
  NOAEL: ≥ 600 mg/kg/day
Mouse [1]; systemic / in life observation / body weight / body weight + systemic / in life observation / body weight / body weight gain + systemic / …
  LEL: 75 mg/kg/day
Rat [2]; [23]
  LOAEL: > 600 mg/kg/day
  NOAEL: ≥ 600 mg/kg/day
Rat [2]; [24]
  LEL: 37.5 mg/kg/day
  NEL: < 37.5 mg/kg/day

## O=C(O)CNCP(=O)(O)O [Glyphosate]
Mouse [3]
  LEL: 4500 mg/kg/day
  LOAEL: 4500 mg/kg/day
  NEL: 750 mg/kg/day
  NOAEL: 750 mg/kg/day
Rat [4]; [25]
  LEL: 1500 mg/kg/day
  LOAEL: 1500 mg/kg/day
  NEL: 500 mg/kg/day
  NOAEL: 500 mg/kg/day
Rat [4]; [26]
  NEL: 500 mg/kg/day
  NOAEL: 500 mg/kg/day
Rat [4]; [27]
  LEL: 1500 mg/kg/day
  LOAEL: 1500 mg/kg/day
Rat [5]
  LEL: 63 mg/kg/day
  LOAEL: > 1270 mg/kg/day
  NEL: < 63 mg/kg/day
  NOAEL: ≥ 1270 mg/kg/day
Rat [6]; [28]
  LEL: 3500 mg/kg/day
  LOAEL: 3500 mg/kg/day
  NEL: 1000 mg/kg/day
  NOAEL: 1000 mg/kg/day
Rat [6]; [29]
  LEL: 3500 mg/kg/day
  LOAEL: 3500 mg/kg/day
  NEL: 1000 mg/kg/day
  NOAEL: 1000 mg/kg/day
Rat [7]; [30]
  LEL: 457 mg/kg/day
  LOAEL: 457 mg/kg/day
Rat [7]; [31]
  NEL: 113 mg/kg/day
  NOAEL: 113 mg/kg/day

## CCS(=O)(=O)c1cccnc1S(=O)(=O)NC(=O)Nc1nc(OC)cc(OC)n1 [Rimsulfuron]
Dog [8]
  LEL: 81.8 mg/kg/day
  LOAEL: 81.8 mg/kg/day
  NEL: 1.6 mg/kg/day
  NOAEL: 1.6 mg/kg/day
Mouse [9]; [32]
  LOAEL: 1130 mg/kg/day
  NEL: 3.47 mg/kg/day
  NOAEL: 351 mg/kg/day
Mouse [9]; systemic / pathology microscopic / testes / degeneration
  LEL: 35.5 mg/kg/day
Rat [10]; [23]
  LEL: 3.35 mg/kg/day
  NEL: < 3.35 mg/kg/day
  NOAEL: 102 mg/kg/day
Rat [10]; [33]
  LOAEL: 495 mg/kg/day
Rat [11]; systemic / clinical chemistry / alkaline phosphatase (alp/alk) / alkaline phosphatase (alp/alk)
  LEL: 11.8 mg/kg/day
Rat [11]; systemic / in life observation / body weight / body weight gain + systemic / organ weight / liver / relative to body weight
  LOAEL: 121 mg/kg/day
Rat [11]; [34]
  NEL: 1 mg/kg/day
  NOAEL: 11.8 mg/kg/day
Rat [12]; [35]
  LEL: 1320 mg/kg/day
  LOAEL: 1320 mg/kg/day
  NEL: 264 mg/kg/day
  NOAEL: 264 mg/kg/day
Rat [12]; [36]
  LEL: 830 mg/kg/day
  LOAEL: 830 mg/kg/day
  NEL: 165 mg/kg/day
  NOAEL: 165 mg/kg/day
Rat [12]; [37]
  LEL: 1020 mg/kg/day
  LOAEL: > 1020 mg/kg/day
  NEL: 204 mg/kg/day
  NOAEL: ≥ 1020 mg/kg/day
Dog [13]; [38]
  LEL: 6.25 mg/kg/day
  LOAEL: 125 mg/kg/day
  NEL: < 6.25 mg/kg/day
Dog [13]; systemic / urinalysis / specific gravity/osmolality / specific gravity/osmolality + systemic / urinalysis / volume / volume + systemic / …
  NOAEL: 6.25 mg/kg/day

## CCOP(=S)(Oc1cnc(C(C)(C)C)nc1)OC(C)C (stereo not given) [Tebupirimfos]
rabbit; [39]
  LEL: 0.3 mg/kg/day
  LOAEL: 0.3 mg/kg/day
  NEL: 0.1 mg/kg/day
  NOAEL: 0.1 mg/kg/day
rabbit; group: maternal, reproductive / reproductive performance / resorptions / resorptions + reproductive / offspring survival early / live fetuses / live fetuses
  LOAEL: 0.3 mg/kg/day
rabbit; group: maternal, reproductive / reproductive performance / resorptions / resorptions + reproductive / offspring survival early / live fetuses / live fetuses…
  LEL: 0.3 mg/kg/day
rabbit; [40]
  NEL: 0.1 mg/kg/day
  NOAEL: 0.1 mg/kg/day
Dog [14]; [41]
  LEL: 0.005 mg/kg/day
  NEL: < 0.005 mg/kg/day
Dog [14]; [42]
  LOAEL: 0.125 mg/kg/day
  NOAEL: 0.02 mg/kg/day
Mouse [15]; [39]
  LEL: 0.16 mg/kg/day
  LOAEL: 0.16 mg/kg/day
  NEL: < 0.16 mg/kg/day
  NOAEL: < 0.16 mg/kg/day
Mouse [15]; [43]
  LOAEL: 38.8 mg/kg/day
  NOAEL: 4.53 mg/kg/day
Mouse [15]; [44]
  LEL: 0.52 mg/kg/day
  NEL: < 0.52 mg/kg/day
Rat [16]; [45]
  LOAEL: 1 mg/kg/day
  NEL: 0.2 mg/kg/day
  NOAEL: 0.3 mg/kg/day
Rat [16]; [39]
  LEL: 0.3 mg/kg/day
Rat [16]; group: systemic, systemic / in life observation / body weight / body weight gain + systemic / in life observation / food consumption / food consumption
  LOAEL: 3.6 mg/kg/day
Rat [16]; group: systemic, systemic / in life observation / body weight / body weight gain + systemic / in life observation / food consumption / food consumption + …
  NOAEL: 1 mg/kg/day
Rat [16]; [46]
  LEL: 0.2 mg/kg/day
  NEL: < 0.2 mg/kg/day

## COC(=O)c1c(C(F)F)nc(C(F)(F)F)c(C2=NCCS2)c1CC(C)C [Thiazopyr]
Rat [17]
  LEL: 68 mg/kg/day
  LOAEL: 68 mg/kg/day
  NEL: 6.6 mg/kg/day
  NOAEL: 6.6 mg/kg/day
Rat [18]; [47]
  LOAEL: 44.2 mg/kg/day
  NOAEL: 4.4 mg/kg/day
Rat [18]; [48]
  LEL: 5.6 mg/kg/day
  NEL: 0.6 mg/kg/day
Rat [19]; [49]
  LEL: 250 mg/kg/day
  LOAEL: 250 mg/kg/day
  NEL: 100 mg/kg/day
  NOAEL: 100 mg/kg/day
Rat [19]; [50]
  LOAEL: 250 mg/kg/day
  NEL: 10 mg/kg/day
  NOAEL: 100 mg/kg/day
Rat [19]; group: maternal, systemic / organ weight / liver / nos
  LEL: 100 mg/kg/day
Dog [20]; systemic / pathology microscopic / liver / hyperplasia + systemic / pathology microscopic / liver / hypertrophy
  LOAEL: 7.8 mg/kg/day
Dog [20]; [51]
  LEL: 7.8 mg/kg/day
  NEL: 0.8 mg/kg/day
  NOAEL: 0.8 mg/kg/day
Dog [21]; [33]
  LOAEL: 3 mg/kg/day
Dog [21]; [52]
  NEL: 2 mg/kg/day
  NOAEL: 2 mg/kg/day
Dog [21]; systemic / in life observation / body weight / body weight gain + systemic / clinical chemistry / albumin-globulin ratio / albumin-globulin …
  LEL: 3 mg/kg/day
